Experimental data reported in paper PMC5943518, “The protein kinase CK2 catalytic domain from Plasmodium falciparum: crystal structure, tyrosine kinase activity and inhibition” (Scientific Reports, 2018).

How the values were obtained:
[1] = target: T1, PfCK2 (PfCK2α, protein kinase CK2 catalytic subunit) (Plasmodium falciparum, UniProt Q8IIR9); test: radiometric peptide kinase assay with γ[…]-ATP ([…] ATP); type: biochemical
T1 construct: gene PF3D7_1108400; Ile12 to Ser335 of PfCK2α

[2] = target: T2, PfCK2α (protein kinase CK2 catalytic α subunit), PfCK2αD179S (Plasmodium falciparum, UniProt Q8IIR9, D179S); test: co-crystal structure at […] Å without Mg2+; ITC (KD […] without Mg2+, […] with […] Mg2+); type: binding
T2 construct: gene PF3D7_1108400; Ile12 to Ser335 (catalytic domain), hexa-histidine tag at C-terminus
T2 sequence (Q8IIR9 12-335 D179S): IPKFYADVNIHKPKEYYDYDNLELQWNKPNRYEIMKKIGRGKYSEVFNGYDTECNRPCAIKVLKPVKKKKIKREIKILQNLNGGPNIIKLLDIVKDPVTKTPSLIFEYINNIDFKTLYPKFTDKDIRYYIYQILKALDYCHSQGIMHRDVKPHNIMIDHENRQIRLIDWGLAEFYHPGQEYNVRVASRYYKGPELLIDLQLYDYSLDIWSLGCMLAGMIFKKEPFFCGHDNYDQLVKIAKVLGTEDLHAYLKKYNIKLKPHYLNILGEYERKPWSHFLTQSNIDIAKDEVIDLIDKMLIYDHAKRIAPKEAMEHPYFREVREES

SMILES | IC50 [1] | Kd [2]
O=C(O)c1ccc2c(c1)nc(Nc1cccc(Cl)c1)c1ccncc12 [CX4945] | 0.0132 µM | –
Nc1ncnc2c1ncn2[C@@H]1O[C@H](COP(=O)(O)OP(=O)(O)OP(=O)(O)O)[C@@H](O)[C@H]1O [ATP] | – | 22.3 µM
